Results reported in publication PMC8469531, “Design, Synthesis, and Biochemical Evaluation of New Triazole Derivatives as Aurora-A Kinase Inhibitors” (Molecules, 2021).
Read-outs that look alike come from different tables or passages of the source. Each block holds one molecule with its values, some of them ahead of it.

Assays:
[1] = target: T1, Aurora-A kinase (Homo sapiens, UniProt O14965); assay: ChEF-based assay (PhosphoSens) of Aurora-A kinase activity
T1 sequence (O14965 1-403): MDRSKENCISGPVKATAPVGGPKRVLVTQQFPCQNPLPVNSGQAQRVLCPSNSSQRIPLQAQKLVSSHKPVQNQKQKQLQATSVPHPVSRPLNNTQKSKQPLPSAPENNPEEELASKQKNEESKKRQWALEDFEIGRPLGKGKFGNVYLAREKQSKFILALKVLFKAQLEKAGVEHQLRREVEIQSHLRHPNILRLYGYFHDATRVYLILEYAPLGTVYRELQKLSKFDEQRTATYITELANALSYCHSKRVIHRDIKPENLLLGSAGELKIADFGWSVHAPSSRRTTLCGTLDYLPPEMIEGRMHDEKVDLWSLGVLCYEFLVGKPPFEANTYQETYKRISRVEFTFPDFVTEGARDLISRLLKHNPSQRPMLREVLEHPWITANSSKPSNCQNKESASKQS
Method: The reaction wells were mixed, and the relative fluorescence unit (RFU) data were collected every 3 min for 30 min at 30 °C. The used λEx/Em of the chelated Mg^2+ with the Sox was 360/485 nm.

[2] = test system: various cancerous cell lines; design: method as in PMID 16204078; details: cited from earlier work
[3] = test system: DLBC lymphoma cell lines; design: method as in PMID 31850205; details: cited from earlier work
[4] = test system: A375 melanoma human tumor xenograft; design: method as in PMID 16204078; details: A375 melanoma human tumor xenograft model; cited from earlier work

Molecule: 4-((5-amino-1-((3,5-bis(trifluoromethyl)phenyl)sulfonyl)-1H-1,2,4-triazol-3-yl)amino)benzenesulfonamide [Compound 1d]
- IC50 ([1]; Mean ± SEM of 3 independent experiments, 1.25 nM Aurora-A kinase, 15 µM ATP, 10 µM CSox-peptide substrate): 1780 ± 340 nM

Molecule: Nc1nc(Nc2ccc(S(N)(=O)=O)cc2)nn1S(=O)(=O)c1ccccc1 [Compound 1a, 4-((5-amino-1-(phenylsulfonyl)-1H-1,2,4-triazol-3-yl)amino)benzenesulfonamide]
- melting point: 229 to 231 °C
- IC50 [1]: 130 ± 60 nM

Molecule: Nc1nc(Nc2ccc(S(N)(=O)=O)cc2)nn1C(=O)c1c(F)cccc1F [JNJ-7706621]
- growth inhibition of normal cells relative to cancerous cell lines ([2]; normal cell growth): several folds less potent at inhibiting normal cell growth
- antiproliferative activity ([2]; various cancerous cell lines): potent antiproliferative activity
- reversal of resistance to CD37-targeted radioimmunotherapy [3]: promoted the reversal of resistance
- tumor size [4]: significantly reduced the tumor size

The remaining lines, values ahead:

- IC50 [1]: 230 ± 20 nM
Molecule: Cc1ccc(S(=O)(=O)n2nc(Nc3ccc(S(N)(=O)=O)cc3)nc2N)cc1 [Compound 1c, 4-((5-amino-1-tosyl-1H-1,2,4-triazol-3-yl)amino)benzenesulfonamide]

- IC50 [1]: 210 ± 20 nM
Molecule: Nc1nc(Nc2ccc(S(N)(=O)=O)cc2)nn1S(=O)(=O)c1c(F)cccc1F [Compound 1b, 4-((5-amino-1-((2,6-difluorophenyl)sulfonyl)-1H-1,2,4-triazol-3-yl)amino)benzenesulfonamide]
